We go through seven compounds from PubChem BioAssay (NCI).

Some test systems named below: CAKI-1 renal; CCRF-CEM leukemia; DU-145 prostate; HOP-92 NSCLC; RPMI-8226 leukemia; SF-268 CNS; SK-MEL-2 melanoma; SK-OV-3 ovarian; SNB-19 CNS; SW-620 colon.
Common to all, as to assay: inhibition of tumour cell growth, NCI panel, 48 h

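A five-concentration, 48-hour dose response in 96-well plates underlies each endpoint, interpolated linearly between surrounding concentrations. The concentration for 50% growth inhibition is given as GI50. TGI: total growth inhibition.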

Take `C#CCNC(=O)[C@H](CC)[C@H]1CC[C@H](C)[C@H]([C@@H](C)[C@H](O)[C@H](C)C(=O)[C@H](CC)C2O[C@]3(C=CC(=O)[C@]4(CC[C@@](C)([C@H]5CC[C@](O)(CC)[C@H](C)O5)O4)O3)[C@H](C)C[C@@H]2C)O1` (stereo not given in full): the GI50 in the assay with CAKI-1 renal is 1.78 µM; with CCRF-CEM leukemia, 2.76 µM; with DU-145 prostate it was 2.41 µM; with HOP-92 NSCLC it was 1.37 µM; with RPMI-8226 leukemia it was 1.77 µM; in the assay with SF-268 CNS it was 2.08 µM. Also, the GI50 with SK-MEL-2 melanoma was 2.44 µM; in the assay with SK-OV-3 ovarian, 3.42 µM; in the assay with SNB-19 CNS, 2.36 µM; in the assay with SW-620 colon, 3.12 µM. The TGI with CAKI-1 renal was 7.02 µM; in the assay with CCRF-CEM leukemia, 19.3 µM; in the assay on DU-145 prostate, 6.32 µM; in the assay on HOP-92 NSCLC, 6.62 µM; in the assay on RPMI-8226 leukemia, 4.9 µM; in the assay on SF-268 CNS, 6.37 µM. The TGI in the assay on SK-MEL-2 melanoma is 7.31 µM; in the assay on SK-OV-3 ovarian, above 100 µM; in the assay with SNB-19 CNS, 7.96 µM; in the assay with SW-620 colon, above 100 µM.
In the case of `COc1ccc(/C=C(\C#N)n2nnc3c(F)cccc32)cc1`, the GI50 in the assay on CAKI-1 renal was 0.122 µM; in the assay on CCRF-CEM leukemia, 0.311 µM; with DU-145 prostate, 0.503 µM; in the assay on HOP-92 NSCLC, 0.293 µM; in the assay on RPMI-8226 leukemia it was 0.409 µM; in the assay with SF-268 CNS, 1.68 µM. Further, the GI50 was 0.504 µM in the assay on SK-MEL-2 melanoma, 1.05 µM in the assay with SK-OV-3 ovarian, 0.412 µM in the assay with SNB-19 CNS and 0.2 µM with SW-620 colon. Further, the TGI is above 100 µM in the assay on CAKI-1 renal; above 100 µM in the assay with CCRF-CEM leukemia; above 40.2 µM in the assay with DU-145 prostate; 42.9 µM in the assay with HOP-92 NSCLC; above 100 µM with RPMI-8226 leukemia; above 100 µM in the assay with SF-268 CNS. The TGI with SK-MEL-2 melanoma was above 49.9 µM; in the assay with SK-OV-3 ovarian, above 90 µM; in the assay on SNB-19 CNS it was 18.2 µM; in the assay with SW-620 colon, above 100 µM.
On to `C[C@]12CC[C@@H]3c4cc(OC(F)F)c(OS(N)(=O)=O)cc4CC[C@H]3[C@@H]1CC[C@@H]2O`, for which the GI50 with CAKI-1 renal is 0.485 µM; in the assay with CCRF-CEM leukemia, 0.398 µM; in the assay with DU-145 prostate, 0.49 µM; in the assay with HOP-92 NSCLC it was 1.64 µM; with RPMI-8226 leukemia it was 0.449 µM; with SF-268 CNS, 1.49 µM. Besides, the GI50 is 3.34 µM in the assay with SK-MEL-2 melanoma, 0.683 µM with SK-OV-3 ovarian, 0.532 µM in the assay with SNB-19 CNS and 0.407 µM with SW-620 colon. Moreover, the TGI is 44.1 µM in the assay on CAKI-1 renal; above 100 µM with CCRF-CEM leukemia; above 100 µM in the assay with DU-145 prostate; 28.6 µM in the assay on HOP-92 NSCLC; 21.9 µM with RPMI-8226 leukemia; 60.3 µM in the assay with SF-268 CNS. For the same compound, the TGI in the assay on SK-MEL-2 melanoma came to 38.7 µM; with SK-OV-3 ovarian, 76.9 µM; in the assay on SNB-19 CNS it was 25.6 µM; with SW-620 colon, 28.8 µM.
On to `OCCNC1c2cc(Cl)ccc2-c2c(Cl)cc(Cl)cc21` (stereo not given), for which the TGI was above 100 µM with CAKI-1 renal; 47.4 µM in the assay on CCRF-CEM leukemia; above 100 µM in the assay on DU-145 prostate; 55.8 µM in the assay with HOP-92 NSCLC; above 100 µM with RPMI-8226 leukemia; above 100 µM with SF-268 CNS. Besides, the TGI with SK-MEL-2 melanoma was 45.4 µM; with SK-OV-3 ovarian, above 100 µM; with SNB-19 CNS it was above 100 µM; in the assay on SW-620 colon, above 100 µM.
With `CC(=O)NCc1cccc(C#Cc2cncnc2Nc2ccc(OCc3cccc(F)c3)c(Cl)c2)c1`, the GI50 in the assay on CAKI-1 renal is 2.04 µM; with CCRF-CEM leukemia it was 13.4 µM; in the assay on DU-145 prostate, 10.1 µM; in the assay with HOP-92 NSCLC it was 5.66 µM; in the assay on RPMI-8226 leukemia, 15.4 µM; in the assay with SF-268 CNS, 16.7 µM. In addition, the GI50 in the assay on SK-MEL-2 melanoma was 11.8 µM; with SK-OV-3 ovarian, above 12.9 µM; in the assay with SNB-19 CNS, above 21.8 µM; with SW-620 colon, 18.3 µM. Besides, the TGI in the assay with CAKI-1 renal was above 23.7 µM; with CCRF-CEM leukemia, above 25 µM; with DU-145 prostate, above 25 µM; in the assay with HOP-92 NSCLC it was above 25 µM; in the assay on RPMI-8226 leukemia it was above 25 µM; in the assay with SF-268 CNS, above 25 µM. For the same compound, the TGI with SK-MEL-2 melanoma, in the assay on SK-OV-3 ovarian, with SNB-19 CNS and in the assay on SW-620 colon was above 25 µM in each case.
For `N#CCCN1C/C(=C/c2ccc(Cl)cc2)C(=O)/C(=C/c2ccc(Cl)cc2)C1`, the GI50 in the assay with CAKI-1 renal is 2.95 µM; in the assay on CCRF-CEM leukemia, 0.396 µM; in the assay with DU-145 prostate, 1.9 µM; in the assay on HOP-92 NSCLC it was 1.81 µM; in the assay on RPMI-8226 leukemia it was 0.255 µM; in the assay on SF-268 CNS, 1.51 µM. Besides, the GI50 is 2.19 µM in the assay on SK-MEL-2 melanoma, 2.23 µM in the assay on SK-OV-3 ovarian, 1.31 µM in the assay on SNB-19 CNS and 0.338 µM in the assay on SW-620 colon. The TGI in the assay with CAKI-1 renal came out at 12 µM; in the assay on CCRF-CEM leukemia, 2.88 µM; in the assay on DU-145 prostate, 4.2 µM; in the assay on HOP-92 NSCLC, 5 µM; in the assay with RPMI-8226 leukemia it was 0.795 µM; in the assay with SF-268 CNS, 3.09 µM. Also, the TGI amounted to 4.88 µM in the assay on SK-MEL-2 melanoma, 5.4 µM in the assay on SK-OV-3 ovarian, 2.72 µM in the assay with SNB-19 CNS and 1.15 µM in the assay with SW-620 colon.
Turning to `COc1cc2nc(-c3cc(F)ccc3O)nc(N[C@@H]3CNC[C@H]3C(C)(C)O)c2cc1OC`, the GI50 with CAKI-1 renal is 1 µM; in the assay with CCRF-CEM leukemia, 2.29 µM; in the assay on DU-145 prostate it was 1.51 µM; in the assay with HOP-92 NSCLC, 0.465 µM; with RPMI-8226 leukemia, 2.15 µM; with SF-268 CNS, 1.32 µM. The GI50 is 1.59 µM in the assay on SK-MEL-2 melanoma, 2.29 µM with SK-OV-3 ovarian, 1.91 µM with SNB-19 CNS and 1.82 µM in the assay with SW-620 colon. For the same compound, the TGI in the assay on CAKI-1 renal came to 2.54 µM; in the assay with CCRF-CEM leukemia, 7.3 µM; in the assay with DU-145 prostate it was 2.96 µM; in the assay on HOP-92 NSCLC, 1.9 µM; with RPMI-8226 leukemia, 5.14 µM; in the assay on SF-268 CNS it was 2.75 µM. The TGI in the assay on SK-MEL-2 melanoma came to 3.12 µM; in the assay on SK-OV-3 ovarian, 4.72 µM; in the assay on SNB-19 CNS it was 4.02 µM; in the assay with SW-620 colon it was 3.39 µM.
